Consider 28 compounds from patent US10428066B2, “Imidazo[4,5-C]pyridine and pyrrolo[2,3-C]pyridine derivatives as SSAO inhibitors” (PROXIMAGEN, LLC, priority 2013, dated 2019).

Counter-ions that a name gives are not always drawn.

In the assay the target is purified recombinantly expressed human SSAO (Homo sapiens (Human), UniProt Q16853). The assay is described as follows: SSAO enzyme inhibition assay (HRP-coupled hydrogen peroxide detection or 14C-benzaldehyde detection, benzylamine substrate). In kind it is biochemical. To be noted: human recombinant SSAO, RT. As to the method: All primary assays were performed at RT. with purified recombinantly expressed human SSAO. Enzyme was prepared essentially as described in Öhman et al. (Protein Expression and Purification 46 (2006) 321-331). In addition, secondary- and selectivity assays were performed using SSAO prepared from various tissues or purified rat recombinant SSAO. The enzyme activity was assayed with benzylamine as substrate by measuring either benzaldehyde production, using ^14C-labeled substrate, or by utilizing the production of hydrogen peroxide in a horseradish peroxidase (HRP) coupled reaction. Briefly, test compounds were dissolved in dimethyl sulfoxide (DMSO) to a concentration of 10 mM. Dose-response measurements were assayed by either creating 1:10 serial dilutions in DMSO to produce a 7 point curve or by making 1:3 serial dilutions in DMSO to produce 11 point curves.
Sequence of purified recombinantly expressed human SSAO (Q16853 29-763): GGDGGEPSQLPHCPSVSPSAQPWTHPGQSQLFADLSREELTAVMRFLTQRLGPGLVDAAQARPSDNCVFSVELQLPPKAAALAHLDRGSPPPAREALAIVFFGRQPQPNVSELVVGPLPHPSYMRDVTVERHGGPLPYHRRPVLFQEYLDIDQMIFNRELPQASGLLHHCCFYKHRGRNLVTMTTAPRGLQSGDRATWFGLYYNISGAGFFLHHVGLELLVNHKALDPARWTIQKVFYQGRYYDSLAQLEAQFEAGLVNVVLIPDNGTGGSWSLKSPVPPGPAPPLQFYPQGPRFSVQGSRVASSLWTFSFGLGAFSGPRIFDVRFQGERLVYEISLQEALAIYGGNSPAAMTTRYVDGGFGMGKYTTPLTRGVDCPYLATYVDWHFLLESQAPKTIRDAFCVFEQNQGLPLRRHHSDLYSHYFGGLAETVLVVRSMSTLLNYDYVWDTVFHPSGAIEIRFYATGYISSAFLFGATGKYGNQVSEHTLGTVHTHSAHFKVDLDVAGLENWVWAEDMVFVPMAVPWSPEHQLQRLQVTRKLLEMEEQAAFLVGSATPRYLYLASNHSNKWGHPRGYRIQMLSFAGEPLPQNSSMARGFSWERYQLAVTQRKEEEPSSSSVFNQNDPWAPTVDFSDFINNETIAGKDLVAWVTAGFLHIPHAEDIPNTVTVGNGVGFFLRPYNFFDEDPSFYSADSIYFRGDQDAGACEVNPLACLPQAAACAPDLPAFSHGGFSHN
In a horseradish peroxidase (HRP) coupled reaction, hydrogen peroxide oxidation of 10-acetyl-3,7-dihydroxyphenoxazine produced resorufin, which is a highly fluorescent compound (Zhout and Panchuk-Voloshina. Analytical Biochemistry 253 (1997) 169-174; Amplex® Red Hydrogen Peroxide/peroxidase Assay kit, Invitrogen A22188). Enzyme and compounds in 50 mM sodium phosphate, pH 7.4 were set to pre-incubate in flat-bottomed microtiter plates for approximately 15 min before initiating the reaction by addition of a mixture of HRP, benzylamine and Amplex reagent. Benzylamine concentration was fixed at a concentration corresponding to the Michaelis constant, determined using standard procedures. Fluorescence intensity was then measured at several time points during 1-2 h, exciting at 544 nm and reading the emission at 590 nm. For the human SSAO assay final concentrations of the reagents in the assay wells were: SSAO enzyme 1 ug/ml, benzylamine 100 uM, Amplex reagent 20 uM, HRP 0.1 U/mL and varying concentrations of test compound. The inhibition was measured as % decrease of the signal compared to a control without inhibitor (only diluted DMSO). The background signal from a sample containing no SSAO enzyme was subtracted from all data points. Data was fitted to a four parameter logistic model and IC50 values were calculated using the GraphPad Prism 4 or XLfit 4 programs.
SSAO activity was assayed using 14C-labeled benzylamine and analysed by measuring radioactive benzaldehyde. In a white 96-well optiplate (Packard), 20 uL of diluted test compound was pre-incubated at room temperature with 20 uL SSAO enzyme for approximately 15 min with continuous agitation. All dilutions were made with PBS. The reaction was initiated by adding 20 uL of the benzylamine substrate solution containing [7-14C] Benzylamine hydrochloride (CFA589, GE Healthcare). The plate was incubated for 1 h as above after which the reaction was stopped by acidification (10 uL 1M aq HCl). Then 90 uL Micro Scint-E solution (Perkin-Elmer) was added to each well and the plate was continuously mixed for 15 min. Phase separation occurred instantly and activity was read in a Topcount scintillation counter (Perkin-Elmer). In the final reaction well, the human recombinant SSAO concentration was 10 ug/ml. In order to optimize sensitivity, the substrate concentration was decreased as compared to the HRP coupled assay in order to get a higher fraction of radioactive product. In the human SSAO assay, benzylamine concentration was 40 uM (0.2 uCi/mL). Data was analysed as above.
As usually defined, the IC50 is the concentration needed to halve the response being measured. As for `Cc1cc(NCC2CC2)ncc1-c1nc2ccncc2n1-c1ccc(F)cc1` [Example 101, N-(Cyclopropylmethyl)-5-[3-(4-fluorophenyl)-3H-imidazo[4,5-c]pyridin-2-yl]-4-methylpyridin-2-amine], the IC50 lay in the range of 50 to 200 nM.
The figure for `CN(C)c1ncc(-c2nc3ccncc3n2-c2ccc(Cl)cc2)cn1` [Example 72, 5-[3-(4-Chlorophenyl)-3H-imidazo[4,5-c]pyridin-2-yl]-N,N-dimethylpyrimidin-2-amine] is 200 to 1200 nM.
Next, `CS(=O)(=O)Nc1ccc(-c2nc3ccncc3n2-c2ccc(Cl)cc2)cn1` [Example 16, N-{5-[3-(4-Chlorophenyl)-3H-imidazo[4,5-c]pyridin-2-yl]pyridin-2-yl}methanesulfonamide]: 200 to 1200 nM.
Next, `Cc1ccc(-n2c(-c3cnc(N4CCOCC4)cc3C)nc3ccncc32)cc1` [Example 97, 4-{4-Methyl-5-[3-(4-methylphenyl)-3H-imidazo[4,5-c]pyridin-2-yl]pyridin-2-yl}morpholine]: 200 to 1200 nM.
For the compound `FC(F)(F)c1ccc(-n2c(-c3ccc(N4CCOCC4)nc3)nc3ccncc32)cc1` [Example 66, 4-(5-{3-[4-(Trifluoromethyl)phenyl]-3H-imidazo[4,5-c]pyridin-2-yl}pyridin-2-yl)morpholine], the IC50 fell in the range of 50 to 200 nM.
The figure for `O=c1cc(-c2nc3ccncc3n2-c2ccc(Cl)cc2F)cc[nH]1` [Example 34, 4-[3-(4-Chloro-2-fluorophenyl)-3H-imidazo[4,5-c]pyridin-2-yl]-1,2-dihydropyridin-2-one] is 50 to 200 nM.
`O=C(c1ccc(-c2nc3ccncc3n2-c2ccc(Cl)cc2)cn1)N1CCOCC1` [Example 6, 4-({5-[3-(4-Chlorophenyl)-3H-imidazo[4,5-c]pyridin-2-yl]pyridin-2-yl}carbonyl)morpholine]: the IC50 lay within 200 to 1200 nM.
As for `CCOCCNc1ncc(-c2nc3ccncc3n2-c2ccc(F)cc2)cn1` [Example 42, N-(2-Ethoxyethyl)-5-[3-(4-fluorophenyl)-3H-imidazo[4,5-c]pyridin-2-yl]pyrimidin-2-amine], the IC50 is 50 to 200 nM.
Next, `Cc1ccc(-n2c(-c3cnc(N4CCOCC4)nc3)nc3ccncc32)cn1` [Example 58, 4-{5-[3-(6-Methylpyridin-3-yl)-3H-imidazo[4,5-c]pyridin-2-yl]pyrimidin-2-yl}morpholine]: 200 to 1200 nM; `Fc1ccc(-n2c(-c3ccc(N4CCOCC4)nc3)nc3ccncc32)cc1` [Example 54, 4-{5-[3-(4-Fluorophenyl)-3H-imidazo[4,5-c]pyridin-2-yl]pyridin-2-yl}morpholine]: 200 to 1200 nM; `O=c1ccc(-c2nc3ccncc3n2-c2ccc(Cl)cc2F)c[nH]1` [Example 35, 5-[3-(4-Chloro-2-fluorophenyl)-3H-imidazo[4,5-c]pyridin-2-yl]-1,2-dihydropyridin-2-one]: 200 to 1200 nM.
In the case of `CN1CCN(C(=O)c2ccc(-c3cc4ccncc4n3-c3ccc(Cl)cc3)cc2)CC1` [Example 125, 1-({4-[1-(4-Chlorophenyl)-1H-pyrrolo[2,3-c]pyridin-2-yl]phenyl}carbonyl)-4-methylpiperazine], the IC50 was in the range of 200 to 1200 nM.
The figure for `Cc1ccc(-n2c(-c3cnc(NC4CCOCC4)nc3)nc3ccncc32)cc1` [Example 119, 5-[3-(4-Methylphenyl)-3H-imidazo[4,5-c]pyridin-2-yl]-N-(oxan-4-yl)pyrimidin-2-amine; bis(trifluoroacetic acid)] is 50 to 200 nM.
The figure for `Clc1ccc(-n2c(-c3cnc(N4CCNCC4)o3)nc3ccncc32)cc1` [Example 18, 1-{5-[3-(4-Chlorophenyl)-3H-imidazo[4,5-c]pyridin-2-yl]-1,3-oxazol-2-yl}piperazine dihydrochloride] is 50 to 200 nM.
The figure for `Fc1ccc(-n2c(-c3cnc(C4CC4)nc3)nc3ccncc32)cc1` [Example 30, 2-Cyclopropyl-5-[3-(4-fluorophenyl)-3H-imidazo[4,5-c]pyridin-2-yl]pyrimidine] is 200 to 1200 nM; for `CN1CCN(c2ccc(-c3nc4ccncc4n3-c3ccc(F)cc3)cn2)CC1=O` [Example 106, 4-{5-[3-(4-Fluorophenyl)-3H-imidazo[4,5-c]pyridin-2-yl]pyridin-2-yl}-1-methylpiperazin-2-one] it is 50 to 200 nM.
In the case of `O=C1CN(c2ncc(-c3nc4ccncc4n3-c3ccc(F)cc3)cn2)CCN1` [Example 12, 4-{5-[3-(4-Fluorophenyl)-3H-imidazo[4,5-c]pyridin-2-yl]pyrimidin-2-yl}piperazin-2-one], the IC50 lay within 50 to 200 nM.
The figure for `Cc1ccc(-n2c(-c3cnc(N4CCOCC4)nc3)nc3ccncc32)c(F)c1` [Example 53, 4-{5-[3-(2-Fluoro-4-methylphenyl)-3H-imidazo[4,5-c]pyridin-2-yl]pyrimidin-2-yl}morpholine] is 200 to 1200 nM.
Next, `c1ccc(-n2c(-c3cnc(N4CCOCC4)nc3)nc3ccncc32)cc1` [Example 95, 4-(5-{3-Phenyl-3H-imidazo[4,5-c]pyridin-2-yl}pyrimidin-2-yl) morpholine]: 50 to 200 nM; `CN(C)c1ccc(-c2nc3ccncc3n2-c2ccc(F)cc2)cn1` [Example 71, 5-[3-(4-Fluorophenyl)-3H-imidazo[4,5-c]pyridin-2-yl]-N,N-dimethylpyridin-2-amine]: 200 to 1200 nM.
The figure for `CC(C)OCCNc1ncc(-c2nc3ccncc3n2-c2ccc(F)cc2)cn1` [Example 38, 5-[3-(4-Fluorophenyl)-3H-imidazo[4,5-c]pyridin-2-yl]-N-[2-(propan-2-yloxy)ethyl]pyrimidin-2-amine] is 50 to 200 nM; for `Clc1ccc(-n2c(-c3cnc(N4CCNCC4)s3)nc3ccncc32)cc1` [Example 19, 1-{5-[3-(4-Chlorophenyl)-3H-imidazo[4,5-c]pyridin-2-yl]-1,3-thiazol-2-yl}piperazine] it is 50 to 200 nM.
Take `Fc1ccc(-n2c(-c3ccnc(N4CCOCC4)c3)nc3ccncc32)cc1` [Example 73, 4-{4-[3-(4-Fluorophenyl)-3H-imidazo[4,5-c]pyridin-2-yl]pyridin-2-yl}morpholine]: the IC50 fell in the range of 50 to 200 nM.
Next, `CN(C)c1cc(-c2nc3ccncc3n2-c2ccc(F)cc2)ccn1` [Example 109, 4-[3-(4-Fluorophenyl)-3H-imidazo[4,5-c]pyridin-2-yl]-N,N-dimethylpyridin-2-amine]: 200 to 1200 nM; `Fc1ccc(-n2c(-c3ccc(C4CCOCC4)nn3)nc3ccncc32)cc1` [Example 15, 3-[3-(4-Fluorophenyl)-3H-imidazo[4,5-c]pyridin-2-yl]-6-(oxan-4-yl)pyridazine]: 50 to 200 nM.
On to `c1cc2nc(-c3cnc(N4CCOCC4)nc3)n(-c3ccc(C4CC4)cc3)c2cn1` [Example 96, 4-{5-[3-(4-Cyclopropylphenyl)-3H-imidazo[4,5-c]pyridin-2-yl]pyrimidin-2-yl}morpholine], for which the IC50 was in the range of 50 to 200 nM.
The figure for `Fc1ccc(-n2c(-c3cnc(N4CCOCC4)nc3)nc3ccncc32)nc1` [Example 76, 4-{5-[3-(5-Fluoropyridin-2-yl)-3H-imidazo[4,5-c]pyridin-2-yl]pyrimidin-2-yl}morpholine] is 50 to 200 nM; for `Clc1ccc(-n2c(-c3ccncc3)nc3ccncc32)cc1` [Example 2, 4-[3-(4-Chlorophenyl)-3H-imidazo[4,5-c]pyridin-2-yl]pyridine] it is 200 to 1200 nM.
